Experimental findings from PubChem BioAssay (NCI) are described below.

“And” between values parts separate entries of the source, which are not always exact repeats. Equal entries are not always repeated.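 Assay format: 96-well plates, 48-hour exposure. GI50 is the concentration that inhibits growth by half. TGI is the concentration that stops growth completely.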 Bounds are passed on as bounds.

One experiment deals with HCT-15 colon. Put plainly: NCI tumour cell line growth inhibition, 48 h.
The molecule `COc1ccccc1N/C(=C\C(=O)C(=O)NC12CC3CC(CC(C3)C1)C2)c1ccccc1` yielded a TGI of more than 10 µM.
On to `Cc1c(F)c(N)c2c(=O)cc(-c3ccc(NC(=O)CN(C)C)c(F)c3)oc2c1F`, for which the TGI was more than 100 µM.
The same measure, in the same setting: for `COc1cccc2c(N)c3cccc(C(=O)NCCN(C)C)c3nc12` the value was 21.2 µM; for `O=C(CCCCCCCCC(=O)NN1C(=O)/C(=C\c2ccc(O)c(O)c2)SC1c1ccc(Cl)cc1)NN1C(=O)/C(=C\c2ccc(O)c(O)c2)SC1c1ccc(Cl)cc1` (configuration not stated), more than 100 µM.
`CC(C)Sc1nc(C#N)cc2c1CCCC2` gave a TGI of more than 100 µM.
For the molecule `CN1C(=O)N(c2ccccc2)C2(CCN(CC3COc4ccccc4O3)CC2)C1=O` (configuration not stated), the TGI was more than 100 µM.
In turn, `O=C1/C(=C/c2ccccc2)N=C(c2ccccc2)N1n1c(-c2ccccc2)nc2ccccc2c1=O` displayed a TGI of more than 100 µM.
In turn, `O=c1nc(N2CCN(c3ccccc3)CC2)ccn1C1OC(CO)C(O)C1O` (configuration not stated) showed a TGI of more than 100 µM.
Molecule `OCCCCCNc1c2ccccc2nc2ccccc12` gave a TGI of 13.9 µM.
`CCOP(=O)(OCC)/C(C#N)=C/c1cnc(-c2ccccc2)[nH]1` came in with a TGI of more than 100 µM.
For `CC(=O)OCC1OC(OC(C)(C)CC/C=C(\C)[C@@H]2C/C=C(\C)CC/C=C(\C)CC2)C(O)C(O)C1OC(C)=O` (some centres not stated), the GI50 is 49.4 µM and 14.2 µM; the TGI is > 100 µM and 29.2 µM.
`O=C(O)c1c2c(cc3c1CC1(Cc4ccccc4C1)C3)CCC2` returned a TGI of more than 100 µM.
`Cc1nc(-c2ccc([N+](=O)[O-])cc2)cn2c1nc1ccccc12`: the TGI was more than 100 µM.
Consider `CN(C)CCCOC(=O)C(c1ccccc1)C1(O)CCSCC1` (configuration not stated), for which the TGI was more than 100 µM.
`COCOC1/C=C/CCCCC2=C(C)C=C(C1)O2` (configuration not stated) came in with a TGI of more than 100 µM.
As for `O=C(O)c1cc2c(cc1CC(Cc1ccc3c(c1)CCC3)C(=O)O)CCC2` (configuration not stated), the TGI is more than 100 µM.
Take `C[C@@]12[C@H]3CC[C@@H]1[C@H](O)C(=O)N2CC3`: the TGI was more than 100 µM.
In turn, `CC(C)=CCOC(=O)C(C)=[N+]=[N-]` returned a TGI of more than 100 µM.
Molecule `Cc1ccc([C@@H]2[C@@H](C(=O)c3ccccn3)[C@H](c3ccc(C)cc3)C[C@](O)(c3ccccn3)[C@H]2C(=O)c2ccccn2)cc1` came in with a TGI of more than 100 µM.
On the same count and under the same terms, for `O=C(Nc1ccc(Br)cc1)c1c(-c2ccccc2)c2ccc(O)cc2oc1=O` the value was more than 10 µM; for `O=C1C(Cl)=C(N2CCN(C3=C(Cl)C(=O)c4ccccc4C3=O)CC2)C(=O)c2ccccc21`, 3.07 µM.
On to `CC(C)(N=NC(C)(C)C(=O)NCCO)C(=O)NCCO`, for which the TGI was more than 100 µM.
For the molecule `CCOc1cc(NC(C)=O)ccc1C(=O)NNC(=O)c1ccccc1OC(C)=O`, the TGI is more than 100 µM.
For the molecule `c1ccc2c(c1)OC(N1CCCC1)c1cnc(N3CCCC3)nc1-2` (configuration not stated), the TGI is more than 100 µM.
Still for that read-out and setting: for `CC(C)c1ccc2[nH]c(O)c(-c3[nH]c4ccccc4c3N=O)c2c1` the value was 14.8 µM.
`CCCCCCCCCCCCCCCCCCNc1ccn(C2OC(COP(=O)(O)OCC3OC(n4ccc(NC(=O)CCCCCCCCCCCCCCCCC)nc4=O)C(OC(C)=O)C3OC(C)=O)C(OC(C)=O)C2OC(C)=O)c(=O)n1` (configuration not stated) registered a TGI of more than 100 µM.

A further experiment relates to MDA-MB-435. Put plainly: NCI tumour cell line growth inhibition, 48 h.
`COc1ccccc1N/C(=C\C(=O)C(=O)NC12CC3CC(CC(C3)C1)C2)c1ccccc1`: the TGI was more than 10 µM.
The molecule `Cc1c(F)c(N)c2c(=O)cc(-c3ccc(NC(=O)CN(C)C)c(F)c3)oc2c1F` registered a TGI of more than 100 µM.
Consider `COc1cccc2c(N)c3cccc(C(=O)NCCN(C)C)c3nc12`, for which the TGI was 1.18 µM.
`O=C(CCCCCCCCC(=O)NN1C(=O)/C(=C\c2ccc(O)c(O)c2)SC1c1ccc(Cl)cc1)NN1C(=O)/C(=C\c2ccc(O)c(O)c2)SC1c1ccc(Cl)cc1` (configuration not stated) yielded a TGI of more than 100 µM.
Same read-out and setting: for `CC(C)Sc1nc(C#N)cc2c1CCCC2` the value was more than 100 µM; for `CN1C(=O)N(c2ccccc2)C2(CCN(CC3COc4ccccc4O3)CC2)C1=O` (configuration not stated), more than 100 µM.
In turn, `O=C1/C(=C/c2ccccc2)N=C(c2ccccc2)N1n1c(-c2ccccc2)nc2ccccc2c1=O` returned a TGI of more than 100 µM.
Take `O=c1nc(N2CCN(c3ccccc3)CC2)ccn1C1OC(CO)C(O)C1O` (configuration not stated): the TGI is more than 100 µM.
Still for that read-out and setting: for `OCCCCCNc1c2ccccc2nc2ccccc12` the value was 8.5 µM.
In the case of `CCOP(=O)(OCC)/C(C#N)=C/c1cnc(-c2ccccc2)[nH]1`, the TGI is 80.9 µM.
For `CC(=O)OCC1OC(OC(C)(C)CC/C=C(\C)[C@@H]2C/C=C(\C)CC/C=C(\C)CC2)C(O)C(O)C1OC(C)=O` (some centres not stated), the TGI was > 82.5 µM and 38.8 µM.
`O=C(O)c1c2c(cc3c1CC1(Cc4ccccc4C1)C3)CCC2` registered a TGI of more than 100 µM.
Molecule `Cc1nc(-c2ccc([N+](=O)[O-])cc2)cn2c1nc1ccccc12` had a TGI of more than 100 µM.
Turning to `CN(C)CCCOC(=O)C(c1ccccc1)C1(O)CCSCC1` (configuration not stated), the TGI was more than 100 µM.
`COCOC1/C=C/CCCCC2=C(C)C=C(C1)O2` (configuration not stated) registered a TGI of more than 100 µM.
For `O=C(O)c1cc2c(cc1CC(Cc1ccc3c(c1)CCC3)C(=O)O)CCC2` (configuration not stated), the TGI was more than 100 µM.
Molecule `C[C@@]12[C@H]3CC[C@@H]1[C@H](O)C(=O)N2CC3` registered a TGI of more than 100 µM.
Molecule `CC(C)=CCOC(=O)C(C)=[N+]=[N-]` registered a TGI of more than 100 µM.
Take `Cc1ccc([C@@H]2[C@@H](C(=O)c3ccccn3)[C@H](c3ccc(C)cc3)C[C@](O)(c3ccccn3)[C@H]2C(=O)c2ccccn2)cc1`: the TGI was more than 100 µM.
The molecule `O=C(Nc1ccc(Br)cc1)c1c(-c2ccccc2)c2ccc(O)cc2oc1=O` returned a TGI of more than 10 µM.
Consider `O=C1C(Cl)=C(N2CCN(C3=C(Cl)C(=O)c4ccccc4C3=O)CC2)C(=O)c2ccccc21`, for which the TGI worked out at 3.27 µM.
Same read-out and setting: for `CC(C)(N=NC(C)(C)C(=O)NCCO)C(=O)NCCO` the value was more than 100 µM.
Regarding `CCOc1cc(NC(C)=O)ccc1C(=O)NNC(=O)c1ccccc1OC(C)=O`, the TGI is more than 100 µM.
Take `c1ccc2c(c1)OC(N1CCCC1)c1cnc(N3CCCC3)nc1-2` (configuration not stated): the TGI was more than 100 µM.
The molecule `CC(C)c1ccc2[nH]c(O)c(-c3[nH]c4ccccc4c3N=O)c2c1` returned a TGI of 20.5 µM.
Regarding `CCCCCCCCCCCCCCCCCCNc1ccn(C2OC(COP(=O)(O)OCC3OC(n4ccc(NC(=O)CCCCCCCCCCCCCCCCC)nc4=O)C(OC(C)=O)C3OC(C)=O)C(OC(C)=O)C2OC(C)=O)c(=O)n1` (configuration not stated), the TGI was more than 100 µM.

The test system of another experiment is UO-31 renal. Put plainly: NCI tumour cell line growth inhibition, 48 h.
`COc1ccccc1N/C(=C\C(=O)C(=O)NC12CC3CC(CC(C3)C1)C2)c1ccccc1`: the TGI was more than 10 µM.
On the same count and under the same terms, for `Cc1c(F)c(N)c2c(=O)cc(-c3ccc(NC(=O)CN(C)C)c(F)c3)oc2c1F` the value was more than 100 µM.
`COc1cccc2c(N)c3cccc(C(=O)NCCN(C)C)c3nc12`: the TGI is 3.04 µM.
Take `O=C(CCCCCCCCC(=O)NN1C(=O)/C(=C\c2ccc(O)c(O)c2)SC1c1ccc(Cl)cc1)NN1C(=O)/C(=C\c2ccc(O)c(O)c2)SC1c1ccc(Cl)cc1` (configuration not stated): the TGI was more than 55 µM.
In turn, `CC(C)Sc1nc(C#N)cc2c1CCCC2` yielded a TGI of more than 100 µM.
The molecule `CN1C(=O)N(c2ccccc2)C2(CCN(CC3COc4ccccc4O3)CC2)C1=O` (configuration not stated) showed a TGI of more than 100 µM.
On to `O=C1/C(=C/c2ccccc2)N=C(c2ccccc2)N1n1c(-c2ccccc2)nc2ccccc2c1=O`, for which the TGI was more than 100 µM.
Take `O=c1nc(N2CCN(c3ccccc3)CC2)ccn1C1OC(CO)C(O)C1O` (configuration not stated): the TGI is more than 100 µM.
Still for that read-out and setting: for `OCCCCCNc1c2ccccc2nc2ccccc12` the value was 10 µM; for `CCOP(=O)(OCC)/C(C#N)=C/c1cnc(-c2ccccc2)[nH]1`, more than 100 µM.
As for `CC(=O)OCC1OC(OC(C)(C)CC/C=C(\C)[C@@H]2C/C=C(\C)CC/C=C(\C)CC2)C(O)C(O)C1OC(C)=O` (some centres not stated), the GI50 is 53.4 µM and 12.7 µM; the TGI is > 100 µM and 25.6 µM.
`O=C(O)c1c2c(cc3c1CC1(Cc4ccccc4C1)C3)CCC2` yielded a TGI of more than 100 µM.
With `Cc1nc(-c2ccc([N+](=O)[O-])cc2)cn2c1nc1ccccc12`, the TGI was more than 100 µM.
